From PMC6416395, “B1.12: a novel peptide interacting with the extracellular loop of the EBV oncoprotein LMP1” (Scientific Reports, 2019)
Residues, ends and D or L forms follow the SMILES beside them.

How the values were obtained:
HeLa/LMP1 cells = test: Competitive inhibition of phage B1.12 binding to HeLa/LMP1 cells; type: cell-based; conditions: peptide 100 µM, 37 °C 1 hour, triplicate mean
Experimental: Binding of the B1.12 peptide to its target B1 and to HeLa/LMP1 cells was evaluated by a competitive binding assay. For competition on B1 as a target, the B1.12 peptide or the unrelated control peptide were incubated at concentrations of 1, 5, 10, 25, 50 and 100 µM with B1 peptide (100 µl of a solution of 1 mg/mL in NaHCO3) at room temperature for 1 hour. Then the B1.12 phage (2 × 10^10 pfu) was added to each well and incubated for 1 hour. After washing, the bound phage was detected by the anti-M13 antibody as described previously. For the competition test on HeLa cells expressing or not the viral oncoprotein LMP1, cells were seeded into 96-well plates (10^4 cells/well), washed twice in PBS, and fixed with 4% paraformaldehyde for 30 minutes at room temperature. Synthetic peptides at concentrations of 50, 75, 100 and 200 µM were incubated with the cells at 37 °C for 1 hour and the experiment was carried out as described above. All experiments were done in triplicate and the mean values of OD were used to calculate the rate of competitive inhibition according to the following formula: inhibition ratio = (OD control − OD phage)/OD control × 100, where OD control and OD phage represent the OD450 nm values of phage binding on cells incubated with PBS and with the peptide, respectively.

C666.1 cells = test: Cell cycle analysis, C666.1; type: cell-based; conditions: C666.1, 50 µM peptide
Experimental: (§1) Cell cycle analysis of C666.1 and HT29 cells was performed using the FXcycleTm PIi/RNnase staining solution (Invitrogen). Briefly, cells (4 × 10^5) were seeded and grown for 24 hours, and then incubated with serum-free RPMI for another 24 hours (starvation) to decrease cell constitutive signaling. After starvation, cells were incubated or not with 50 µM B1.12 peptide (C666.1 and HT29 cells) or control peptide (C666.1 cells) for 48 hours. Following incubation, cells were washed with PBS, trypsinized and centrifuged at 1200 rpm for 5 minutes. The cell pellet was then washed twice with PBS, and cells were fixed with 5 mL of ethanol 70% for 24 hours at 4 °C. Aliquots of 2 × 10^5 ethanol-fixed cells were then centrifuged for 5 minutes at 450 g, washed with PBS, and then resuspended in Propidium Iodide Reagent and incubated for 30 minutes at room temperature, shielded from light. The data were collected and analyzed by an Attune NxT Flow Cytometer (Thermofisher).

HT29 cells = test: Cell cycle analysis, HT29; type: cell-based, human; conditions: HT29, 50 µM peptide
Experimental: Three cell lines were used: C666-1 which is a native EBV-infected NPC-derived cell line constitutively expressing LMP1, HeLa cells transfected with native vector (Gpt) or harboring the cDNA encoding LMP1, and HT-29 which is a human colon cancer cell line All cells were maintained in RPMI medium 1640 supplemented with 5% (V/V) FBS (Gibco), 4 µg/mL Gentamycine and 2 mM L-glutamine at 37 °C in a humidified atmosphere of 5% CO2. These cell lines were kindly provided by Pr P. Busson (IGR-France).
as §1, with “Aliquots of 2 × 10^5 ethanol-fixed cells were then centrifuged for 5 minutes at 450 g, washed with PBS, and then resuspended in Propidium Iodide Reagent and incubated for 30 minutes at room temperature, shielded from light.” left out

[1] = propidium iodide FACS, 24 h (48 h elsewhere in the source)

CC(C)C[C@H](NC(=O)[C@H](CC(=O)O)NC(=O)[C@H](CC(C)C)NC(=O)[C@@H]1CCCN1C(=O)[C@H](CS)NC(=O)[C@H](C)N)C(=O)N[C@@H](CCCNC(=N)N)C(=O)N[C@@H](CO)C(=O)N1CCC[C@H]1C(=O)N[C@@H](CS)C(=O)NCC(N)=O [B1.12] (H-ACPLDLRSPCG-NH2; N-terminus and C-terminus assumed)
inhibition ratio (HeLa/LMP1 cells): 45% | cell cycle progression versus untreated (in words) (C666.1 cells): inducing G0/G1 cell cycle arrest | cells in G0/G1 phase (C666.1 cells; [1]): 73% | cell cycle phases versus untreated (in words) (HT29 cells): the cell cycle phases still unchanged | cells in G0/G1 phase (HT29 cells; [1]): 78.3%
